Laboratory results from ChEMBL document CHEMBL1201862, “PubChem BioAssay data set” (2004).
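Compound exposure: 48 hours, 5 concentrations, 96-well plates. GI50 marks 50% less growth.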 Calls of active or inactive are those of the source. Rule as the data show it: active = GI50 up to about 1.1 µM and inactive = higher.

Experiments:
Experiment in all cases: DTP human tumour cell line panel, 48 h
[1] = test system: 786-0
[2] = test system: A498
[3] = test system: A549
[4] = test system: ACHN
[5] = test system: CAKI-1
[6] = test system: CCRF-CEM
[7] = test system: COLO 205
[8] = test system: DLD-1
[9] = test system: DMS-114
[10] = test system: DMS-273
[11] = test system: HCC 2998
[12] = test system: HCT-116
[13] = test system: HCT-15
[14] = test system: HL-60
[15] = test system: HOP-18
[16] = test system: HOP-62
[17] = test system: HOP-92
[18] = test system: HT-29
[19] = test system: IGROV-1
[20] = test system: K562
[21] = test system: KM-20L2
[22] = test system: LOX IMVI
[23] = test system: LXFL 529
[24] = test system: M14
[25] = test system: M19-MEL
[26] = test system: MOLT-4
[27] = test system: Malme-3M
[28] = test system: NCI-H226
[29] = test system: NCI-H23
[30] = test system: NCI-H460
[31] = test system: OVCAR-3
[32] = test system: OVCAR-4
[33] = test system: OVCAR-5
[34] = test system: OVCAR-8
[35] = test system: RPMI-8226
[36] = test system: RXF 631
[37] = test system: SF-268
[38] = test system: SF-295
[39] = test system: SK-MEL-28
[40] = test system: SK-MEL-5
[41] = test system: SK-OV-3
[42] = test system: SN12C
[43] = test system: SNB-19
[44] = test system: SR
[45] = test system: SW-620
[46] = test system: TK-10
[47] = test system: U-251
[48] = test system: UACC-257
[49] = test system: UACC-62
[50] = test system: UO-31
[51] = test system: EKVX
[52] = test system: KM12
[53] = test system: SF-539
[54] = test system: SNB-75
[55] = test system: SNB-78
[56] = test system: BT-549
[57] = test system: DU-145
[58] = test system: MCF7
[59] = test system: MDA-MB-231
[60] = test system: MDA-N
[61] = test system: NCI-H522
[62] = test system: NCI/ADR-RES
[63] = test system: PC-3
[64] = test system: T47D

What does the source list for `COC(=O)C1=CC2CC1C(S(=O)(=O)c1ccccc1)C2S(=O)(=O)c1ccccc1` (centres undefined)?
GI50 [1]: 10.3 µM (inactive); GI50 [2]: 17.6 µM (inactive); GI50 [3]: 24.8 µM (inactive); GI50 [4]: 7.48 µM (inactive); GI50 [5]: 7.83 µM (inactive); GI50 [6]: 2.92 µM (inactive); GI50 [7]: 8.45 µM (inactive); GI50 [8]: 14.5 µM (inactive); GI50 [9]: 15.5 µM (inactive); GI50 [10]: 10.5 µM (inactive); GI50 [11]: 19.7 µM (inactive); GI50 [12]: 14.8 µM (inactive); GI50 [13]: 12.5 µM; GI50 [14]: 2.62 µM (inactive); GI50 [15]: 16.7 µM (inactive); GI50 [16]: 54.3 µM (inactive); GI50 [17]: 15.1 µM (inactive); GI50 [18]: 13.8 µM (inactive); GI50 [19]: 32.7 µM (inactive); GI50 [20]: 5.14 µM (inactive); GI50 [21]: 16.4 µM (inactive); GI50 [22]: 13.7 µM (inactive); GI50 [23]: 5.81 µM (inactive); GI50 [24]: 11.3 µM (inactive); GI50 [25]: 18.3 µM (inactive); GI50 [26]: 4.42 µM (inactive); GI50 [27]: 10.7 µM (inactive); GI50 [28]: 17.6 µM (inactive); GI50 [29]: 18.1 µM (inactive); GI50 [30]: 21.6 µM (inactive); GI50 [31]: 7.23 µM (inactive); GI50 [32]: 17.5 µM (inactive); GI50 [33]: 14.7 µM (inactive); GI50 [34]: 13 µM (inactive); GI50 [35]: 5.4 µM (inactive); GI50 [36]: 13.5 µM (inactive); GI50 [37]: 22.9 µM (inactive); GI50 [38]: 21.3 µM (inactive); GI50 [39]: 14.1 µM (inactive); GI50 [40]: 16.9 µM (inactive); GI50 [41]: 44.3 µM (inactive); GI50 [42]: 14 µM (inactive); GI50 [43]: > 100 µM (inactive); GI50 [44]: 2.56 µM (inactive); GI50 [45]: 4.59 µM (inactive); GI50 [46]: 10.4 µM (inactive); GI50 [47]: 17.3 µM (inactive); GI50 [48]: 15.2 µM (inactive); GI50 [49]: 22.1 µM (inactive); GI50 [50]: 14.3 µM (inactive)

What does the source list for `CCCCC1=CSC(c2ccccc2)=C(c2ccccc2)S1`?
GI50 [1]: 87.5 µM (inactive); GI50 [2]: > 100 µM (inactive); GI50 [3]: 64.1 µM (inactive); GI50 [6]: 21.6 µM (inactive); GI50 [7]: > 100 µM (inactive); GI50 [8]: 82.6 µM (inactive); GI50 [9]: > 100 µM (inactive); GI50 [10]: 26.7 µM (inactive); GI50 [51]: > 100 µM (inactive); GI50 [11]: 37.6 µM (inactive); GI50 [12]: 6.46 µM (inactive); GI50 [13]: 26.2 µM; GI50 [15]: > 100 µM (inactive); GI50 [17]: 11.7 µM (inactive); GI50 [18]: 33.6 µM (inactive); GI50 [19]: > 100 µM (inactive); GI50 [20]: 8.83 µM (inactive); GI50 [21]: 42.8 µM (inactive); GI50 [52]: 42.3 µM (inactive); GI50 [22]: 20.1 µM (inactive); GI50 [23]: 8.28 µM (inactive); GI50 [24]: 85.1 µM (inactive); GI50 [25]: 38.9 µM (inactive); GI50 [26]: 8.97 µM (inactive); GI50 [28]: > 100 µM (inactive); GI50 [29]: 36.1 µM (inactive); GI50 [30]: 53.1 µM (inactive); GI50 [31]: 60.4 µM (inactive); GI50 [32]: 37.6 µM (inactive); GI50 [34]: 73.8 µM (inactive); GI50 [35]: 9.23 µM (inactive); GI50 [36]: > 100 µM (inactive); GI50 [38]: 36.5 µM (inactive); GI50 [53]: > 100 µM (inactive); GI50 [39]: 63.5 µM (inactive); GI50 [40]: 23.9 µM (inactive); GI50 [41]: > 100 µM (inactive); GI50 [42]: 97.5 µM (inactive); GI50 [43]: 43.3 µM (inactive); GI50 [54]: 57 µM (inactive); GI50 [55]: > 100 µM (inactive); GI50 [45]: 69 µM (inactive); GI50 [46]: > 100 µM (inactive); GI50 [47]: 30.9 µM (inactive); GI50 [49]: 40.5 µM (inactive); GI50 [50]: > 100 µM (inactive)

Which GI50 [1] does the source give for `COc1cccc2c1C(=O)c1c(O)c3c(c(O)c1C2=O)C[C@@](O)(C(=O)CO)C[C@@H]3OC1CC(N)CC(C)O1` (some centres undefined) here?
Its GI50 is 0.0247 µM (active).

And the GI50 [56]?
Its GI50 is 0.0283 µM (active).

What about the GI50 [6] of the same compound?
Its GI50 is 0.0267 µM (active).

And the GI50 [7]?
The GI50 was 0.042 µM (active).

What about the GI50 [8] of the same compound?
Its GI50 is 0.092 µM (active).

What about the GI50 [57] of the same compound?
Its GI50 is 0.0267 µM (active).

And the GI50 [51]?
The GI50 was 0.0847 µM (active).

And the GI50 [11]?
Its GI50 is 0.0706 µM (active).

And the GI50 [15]?
Its GI50 is 0.0348 µM (active).

What about the GI50 [16] of the same compound?
The GI50 was 0.0221 µM (active).

What about the GI50 [17] of the same compound?
Its GI50 is 0.0416 µM (active).

What about the GI50 [18] of the same compound?
The GI50 was 0.035 µM (active).

And the GI50 [21]?
Its GI50 is 0.0695 µM (active).

What about the GI50 [23] of the same compound?
The GI50 was 0.0462 µM (active).

And the GI50 [24]?
Its GI50 is 0.0803 µM (active).

And the GI50 [25]?
The GI50 was 0.0314 µM (active).

And the GI50 [58]?
The GI50 was 0.024 µM (active).

What about the GI50 [59] of the same compound?
The GI50 was 0.0612 µM (active).

And the GI50 [60]?
The GI50 was 0.0955 µM (active).

What about the GI50 [27] of the same compound?
The GI50 was 0.0284 µM (active).

And the GI50 [61]?
The GI50 was 0.038 µM (active).

And the GI50 [62]?
Its GI50 is 3.67 µM (inactive).

What about the GI50 [31] of the same compound?
The GI50 was 0.0547 µM (active).

And the GI50 [32]?
The GI50 was 0.046 µM (active).

What about the GI50 [33] of the same compound?
The GI50 was 0.074 µM (active).

What about the GI50 [63] of the same compound?
Its GI50 is 0.027 µM (active).

What about the GI50 [36] of the same compound?
The GI50 was 0.0301 µM (active).

What about the GI50 [37] of the same compound?
Its GI50 is 0.0451 µM (active).

And the GI50 [38]?
Its GI50 is 0.0239 µM (active).

What about the GI50 [40] of the same compound?
The GI50 was 0.0371 µM (active).

What about the GI50 [41] of the same compound?
Its GI50 is 0.0521 µM (active).

What about the GI50 [42] of the same compound?
The GI50 was 0.0299 µM (active).

And the GI50 [54]?
Its GI50 is 0.0402 µM (active).

And the GI50 [55]?
The GI50 was 0.128 µM (active).

What about the GI50 [44] of the same compound?
The GI50 was 0.00266 µM (active).

What about the GI50 [64] of the same compound?
The GI50 was 0.0233 µM (active).

What about the GI50 [48] of the same compound?
The GI50 was 0.051 µM (active).

And the GI50 [49]?
The GI50 was 0.0254 µM (active).
